Measurements published in patent publication US8580812B2, “Heteroaryl amide analogues as P2X7 antagonists” (H. Lundbeck A/S, priority 2007, dated 2013).

Molecular target: T1, P2X7 (Homo sapiens, UniProt Q99572)
T1 construct: host or cells: SH-SY5Y
T1 sequence (Q99572 1-595): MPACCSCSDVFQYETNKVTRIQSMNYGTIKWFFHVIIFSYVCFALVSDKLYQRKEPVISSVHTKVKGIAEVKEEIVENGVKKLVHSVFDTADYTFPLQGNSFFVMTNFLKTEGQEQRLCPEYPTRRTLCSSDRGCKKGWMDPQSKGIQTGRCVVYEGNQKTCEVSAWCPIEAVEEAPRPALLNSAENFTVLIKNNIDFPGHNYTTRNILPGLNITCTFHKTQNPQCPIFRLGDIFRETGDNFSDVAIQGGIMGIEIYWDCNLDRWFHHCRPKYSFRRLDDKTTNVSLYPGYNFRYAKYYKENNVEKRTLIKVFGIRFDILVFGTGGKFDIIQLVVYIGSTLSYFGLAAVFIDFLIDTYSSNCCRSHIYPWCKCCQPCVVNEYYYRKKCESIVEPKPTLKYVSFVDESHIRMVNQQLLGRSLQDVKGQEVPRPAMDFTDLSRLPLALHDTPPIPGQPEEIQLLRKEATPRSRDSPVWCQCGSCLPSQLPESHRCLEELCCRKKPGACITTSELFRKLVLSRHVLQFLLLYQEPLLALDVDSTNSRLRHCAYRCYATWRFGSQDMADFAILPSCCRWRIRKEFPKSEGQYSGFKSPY
Assay: High Throughput P2X7 Calcium Mobilization Assay (Example 4A), antagonist activity
Format: cell-based
Settings: SH-SY5Y cells, 50% decrease in fluorescence response of cells exposed to 80 μM BzATP
Protocol: A. High Throughput P2X7 Calcium Mobilization Assay
SH-SY5Y cells, ATCC Number CRL-2266, (American Type Culture Collection, Manassas, Va.) are cultured under DMEM/High medium supplemented with 10% FBS, and 10 mM HEPES (Invitrogen Corp., Carlsbad, Calif.) in 5% CO2 and at 37° C. One day prior to the experiment, cells are plated at a density of 100,000 cells/well in a 96 well black/clear TC plate (Corning® Costar®, Sigma-Aldrich Co., St. Louis, Mo.). At the beginning of the experiment, the culture medium is removed and cells are incubated with 50 μL of 2.3 μM Fluo-4 AM dye (Invitrogen Corp.) in the assay solution (5 mM KCl, 9.6 mM NaH2PO4.H2O, 25 mM HEPES, 280 mM Sucrose, 5 mM Glucose, and 0.5 mM CaCl2; pH is adjusted to 7.4 with NaOH) for an hour at 37° C. After one hour dye incubation, wells are rinsed once with 50 μL assay solution, and are then incubated for an hour at room temperature with 100 μL assay solution containing the test compound. The final concentration of test compound generally ranges from 1 to 2500 nM; for positive control cells, no test compound is added. After the one hour incubation, plates are transferred to a FLIPR^TETRA instrument (Molecular Devices, Sunnyvale, Calif.) for calcium mobilization analysis.
For determination of antagonist activity, 50 μL of P2X7 agonist (2′(3′)-O-(4-benzoyl-benzoyl)adenosine 5′-triphosephate (BzATP; Sigma-Aldrich) in the assay solution is transferred using the FLIPR into the plate, such that the final agonist concentration is 80 μM (about EC50). In negative control cells, 50 μL of assay solution without agonist is added at this stage. The peak fluorescence signal over a 2 minute period is then measured.
First, the average maximum relative fluorescent unit (RFU) response from the negative control wells (no agonist) is subtracted from the maximum response detected for each of the other experimental wells. Second, average maximum RFU response is calculated for the positive control wells (agonist wells). Then, percent inhibition for each compound tested is calculated using the equation: Percent Inhibition=100−100×(Peak Signal in Test Cells/Peak Signal in Control Cells) The % inhibition data is plotted as a function of test compound concentration and test compound IC50 is determined using, for example, KALEIDAGRAPH software (Synergy Software, Reading, Pa.) best fit of the data to the equation: y=m1*(1/(1+(m2/m0)^m3)) where y is the percent inhibition, m0 is […], m1 is the maximum RFU, m2 corresponds to the test compound IC50 (the concentration required to provide a 50% decrease, relative to the response observed in the presence of agonist and without antagonist) and m3 is the Hill coefficient.

| Compound | IC50 [nM] |
| --- | --- |
| CC(C)CC(CNC(=O)c1cccn2nc(C(=O)N3CC[C@@H](N)C3)cc12)c1ccccc1 (stereo partly drawn) [Compound 45, 2-{[(3R)-3-aminopyrrolidin-1-yl]carbonyl}-N-(4-methyl-2-phenylpentyl)pyrazolo [1,5-a]pyridine-4-carboxamide] | ≤ 2000 |
| CN(Cc1cccc(F)c1)Cc1cc2c(C(=O)NCC34CC5CC(CC(C5)C3)C4)cccn2n1 [Compound 69, N-(adamantan-1-ylmethyl)-2-{[(3-fluorobenzyl)(methyl)amino]methyl}pyrazolo [1,5-a]pyridine-4-carboxamide] | ≤ 2000 |
| O=C(O)c1ccc(-c2cc3c(C(=O)NCC45CC6CC(CC(C6)C4)C5)cccn3c2)cc1 [Compound 108, 4-{8-[(adamantan-1-ylmethyl)carbamoyl]indolizin-2-yl}benzoic acid] | ≤ 2000 |
| CN(Cc1ccncc1)C(=O)c1cc2c(C(=O)NCC34CC5CC(CC(C5)C3)C4)cccn2n1 [Compound 33, 4-N-(adamantan-1-ylmethyl)-2-N-methyl-2-N-(pyridin-4-ylmethyl)pyrazolo[1,5-a]pyridine-2,4-dicarboxamide] | ≤ 2000 |
| O=C(NCC1(c2ccc(Cl)cc2)CCCCC1)c1cccn2nc(C(Cc3ccccc3)C(=O)O)cc12 (centres unmarked) [Compound 104, 2-[4-({[1-(4-chlorophenyl)cyclohex-yl]methyl}carbamoyl)pyrazolo[1,5-a]pyridin-2-yl]-3-phenyl propanoic acid] | ≤ 2000 |
| CN(CCF)C(=O)c1cc2c(C(=O)NCC3(c4ccc(C(F)(F)F)cc4)CCCCC3)cccn2n1 [Compound 93, Pyrazolo[1,5-a]pyridine-2,4-dicarboxylic acid 2-[(2-fluoro-ethyl)-methyl-amide]-4-{[1-(4-trifluoromethyl-phenyl)-cyclohexylmethyl]-amide}] | ≤ 2000 |
| O=C(NCC12CC3CC(CC(C3)C1)C2)c1cccn2nc(CCC3=NCCN3)cc12 [Compound 95, N-(adamantan-1-ylmethyl)-2-[2-(4,5-dihydro-1H-imidazol-2-yl)ethyl]pyrazolo[1,5-a]pyridine-4-carboxamide] | ≤ 2000 |
| O=C(NCC1(c2ccc(Cl)cc2)CCCCC1)c1cccn2nc(C(=O)N3CCOCC3)cc12 [Compound 84, N-{[1-(4-chlorophenyl)cyclohex-yl]methyl}-2-(morpholin-4-ylcarbonyl)pyrazolo [1,5-a]pyridine-4-carboxamide] | ≤ 2000 |

The remaining lines, values ahead:

| IC50 [nM] | Compound |
| --- | --- |
| ≤ 2000 | O=C(NC1CCS(=O)(=O)C1)c1cc2c(C(=O)NCC34CC5CC(CC(C5)C3)C4)cccn2n1 (centres unmarked) [Compound 82, 4-N-(adamantan-1-ylmethyl)-2-N-(1,1-dioxidotetrahydrothio-phen-3-yl)pyrazolo[1,5-a]pyridine-2,4-dicarboxamide] |
| ≤ 2000 | O=C(NCC12CC3CC(CC(C3)C1)C2)c1cccn2nc(C(=O)N3CCOCC3)cc12 [Compound 22, N-(adamantan-1-ylmethyl)-2-(morpholin-4-ylcarbonyl)pyrazolo [1,5-a]pyridine-4-carboxamide] |
| ≤ 2000 | N[C@@H]1CCN(C(=O)c2cc3c(NC(=O)CC45CC6CC(CC(C6)C4)C5)cccn3n2)C1 [Compound 99, 2-adamantan-1-yl-N-(2-{[(3R)-3-aminopyrrolidin-1-yl]carbonyl}pyrazolo [1,5-a]pyridin-4-yl)acetamide] |
| ≤ 2000 | CN(C(=O)c1cc2c(C(=O)NCC34CC5CC(CC(C5)C3)C4)cccn2n1)C1CCOC1 (centres unmarked) [Compound 28, 4-N-(adamantan-1-ylmethyl)-2-N-methyl-2-N-(tetrahydrofuran-3-yl)pyrazolo[1,5-a]pyridine-2,4-dicarboxamide] |
| ≤ 2000 | O=C(NCC(F)F)c1cc2c(C(=O)NCC34CC5CC(CC(C5)C3)C4)cccn2n1 [Compound 63, 4-N-(adamantan-1-ylmethyl)-2-N-(2,2-difluoroethyl)pyrazolo [1,5-a]pyridine-2,4-dicarboxamide] |
| ≤ 2000 | O=C1CN(C(=O)c2cc3c(C(=O)NCC45CC6CC(CC(C6)C4)C5)cccn3n2)CCN1 [Compound 32, N-(adamantan-1-ylmethyl)-2-[(3-oxopiperazin-1-yl)carbonyl]pyrazolo [1,5-a]pyridine-4-carboxamide] |
